In ChEMBL document CHEMBL2163202, “Enhanced Ca2+ entry, ceramide formation, and apoptotic death of erythrocytes triggered by plumbagin” (J Nat Prod, 2012):
Active and inactive are the calls of the source. The calls are words filed in the database; no cut-off is given here.

Legend:
Erythrocyte [1] = experiment: Induction of eryptosis in human erythrocytes assessed as reduction in cell volume measuring forward scatter up to 2 uM after 48 hrs by FACS analysis; format: functional, cell-based
Erythrocyte [2] = experiment: Induction of eryptosis in human erythrocytes assessed as reduction in cell volume measuring forward scatter at 1.5 uM after 48 hrs by FACS analysis; format: functional, cell-based
Erythrocyte [3] = experiment: Induction of eryptosis in human erythrocytes assessed as phosphatidylserine exposure at 1 uM after 48 hrs by annexin V staining-based FACS analysis; format: functional, cell-based
Erythrocyte [4] = experiment: Induction of eryptosis in human erythrocytes assessed as cell membrane scrambling at 1 uM after 48 hrs by annexin V staining-based FACS analysis in presence of extracellular Ca2+; format: functional
Erythrocyte [5] = experiment: Induction of eryptosis in human erythrocytes assessed as increase in cytosolic Ca2+ up to 2 uM after 48 hrs by Fluo-3/AM-based FACS analysis; format: functional, cell-based
Erythrocyte [6] = experiment: Hemolysis in human erythrocytes assessed as release of hemoglobin up to 2 uM after 48 hrs by spectrophotometry; format: functional, cell-based
Erythrocyte [7] = experiment: Stimulation of ceramide formation in human erythrocytes at 2 uM after 48 hrs by FITC-labeled anticeramide antibody method; format: functional, cell-based
Erythrocyte [8] = experiment: Induction of eryptosis in human erythrocytes assessed as cell membrane scrambling at 1 uM after 48 hrs by annexin V staining-based FACS analysis in nominal absence of extracellular Ca2+; format: functional
Erythrocyte [9] = experiment: Induction of eryptosis in human erythrocytes assessed as increase in cytosolic Ca2+ at 0.5 uM after 48 hrs by Fluo-3/AM-based FACS analysis; format: functional, cell-based
Erythrocyte [10] = experiment: Hemolysis in human erythrocytes assessed as release of hemoglobin at 1 uM after 48 hrs by spectrophotometry; format: functional, cell-based
Erythrocyte [11] = experiment: Induction of eryptosis in human erythrocytes assessed as phosphatidylserine exposure up to 2 uM after 48 hrs by annexin V staining-based FACS analysis; format: functional, cell-based

CC1=CC(=O)c2c(O)cccc2C1=O
Activity (Erythrocyte [1]): Active | Activity (Erythrocyte [2]): Active | Activity (Erythrocyte [3]): Active | Activity (Erythrocyte [4]): Active | Activity (Erythrocyte [5]): Active | Activity (Erythrocyte [6]): Active | Activity (Erythrocyte [7]): Active | Activity (Erythrocyte [8]): inactive | Activity (Erythrocyte [9]): Active | Activity (Erythrocyte [10]): Active | Activity (Erythrocyte [11]): Active
